Here are results for 54 compounds from ChEMBL document CHEMBL4651402, “Screening of ~5500 FDA-approved drugs and clinical candidates for anti-SARS-CoV-2 activity” (2021).

SMILES strings stand for the structures.

The assay has as its system SARS-CoV-2. Description: microbe, parasite or virus in culture. Conditions: Severe acute respiratory syndrome coronavirus 2, Vero C1008, 48 h.

The compound `O=[N+]([O-])OCC(CO[N+](=O)[O-])O[N+](=O)[O-]` [NITROGLYCERIN] showed an IC50 above 20 µM. The IC50 (read-out: pIC50 (converted)) was above 20 µM.
`NC(=O)c1cc([N+](=O)[O-])cc([N+](=O)[O-])c1` [NITROMIDE] gave an IC50 above 20 µM. In addition, where the note is “read-out: pIC50 (converted)”, the IC50 is above 20 µM.
`O=[N+]([O-])c1ccc(O)c2ncccc12` [NITROXOLINE] came in with an IC50 above 20 µM. Also, for the setting “read-out: pIC50 (converted)”, the IC50 is above 20 µM.
Regarding `CNC(=C[N+](=O)[O-])NCCSCc1csc(CN(C)C)n1` [NIZATIDINE], the IC50 was above 20 µM. Besides, for the setting “read-out: pIC50 (converted)”, the IC50 is above 20 µM.
Turning to `Cc1ccc(Cn2c(NC3CCNCC3)nc3cccnc32)o1` [NOBERASTINE], the IC50 is above 20 µM. Moreover, under “read-out: pIC50 (converted)”, the IC50 was above 20 µM.
As for `COC(=O)Nc1nc2cc(C(=O)c3cccs3)ccc2[nH]1` [NOCODAZOLE], the IC50 was above 20 µM. In addition, the IC50 (read-out: pIC50 (converted)) is above 20 µM.
Regarding `CC(=O)O[C@]1(C(C)=O)CC[C@H]2[C@@H]3C=C(C)C4=CC(=O)CC[C@@H]4[C@H]3CC[C@@]21C` [NOMEGESTROL ACETATE], the IC50 is above 20 µM. The IC50 (read-out: pIC50 (converted)) is above 20 µM.
In the case of `CCC(OC(C)=O)C(CC(C)NC)(c1ccccc1)c1ccccc1` (stereo not drawn) [NORACYMETHADOL], the IC50 was above 20 µM. In addition, for the setting “read-out: pIC50 (converted)”, the IC50 was above 20 µM.
In turn, `COc1ccc2c3c1O[C@H]1[C@@H](O)C=C[C@H]4[C@@H](C2)NCC[C@@]341` [NORCODEINE] had an IC50 above 20 µM. Moreover, where the note is “read-out: pIC50 (converted)”, the IC50 was above 20 µM.
On to `O=C1CN=C(c2ccccc2)c2cc(Cl)ccc2N1` [NORDAZEPAM], for which the IC50 is above 20 µM. Moreover, where the note is “read-out: pIC50 (converted)”, the IC50 is above 20 µM.
As to `NC[C@H](O)c1ccc(O)c(O)c1` [NOREPINEPHRINE], the IC50 was above 20 µM. In addition, the IC50 (read-out: pIC50 (converted)) was above 20 µM.
`C#C[C@]1(OC(C)=O)CC[C@H]2[C@@H]3CCC4=CC(=O)CC[C@@H]4[C@H]3CC[C@@]21C` [NORETHINDRONE ACETATE] registered an IC50 above 20 µM. Also, the IC50 (read-out: pIC50 (converted)) is above 20 µM.
Take `C#C[C@]1(O)CC[C@H]2[C@@H]3CCC4=CC(=O)CC[C@@H]4[C@H]3CC[C@@]21C` [NORETHINDRONE]: the IC50 was above 20 µM. Also, the IC50 (read-out: pIC50 (converted)) is above 20 µM.
`C#C[C@]1(O)CC[C@H]2[C@@H]3CCC4=C(CCC(=O)C4)[C@H]3CC[C@@]21C` [NORETHYNODREL] came in with an IC50 above 20 µM. Also, for the setting “read-out: pIC50 (converted)”, the IC50 was above 20 µM.
Take `NCC(O)c1cccc(O)c1` (stereo not drawn) [NORFENEFRINE]: the IC50 was above 20 µM. Moreover, where the note is “read-out: pIC50 (converted)”, the IC50 is above 20 µM.
In turn, `CCn1cc(C(=O)O)c(=O)c2cc(F)c(N3CCNCC3)cc21` [NORFLOXACIN] gave an IC50 above 20 µM. In addition, the IC50 (read-out: pIC50 (converted)) is above 20 µM.
As for `c1ccc2c(c1)[nH]c1cnccc12` [NORHARMANE], the IC50 was above 20 µM. Also, the IC50 (read-out: pIC50 (converted)) is above 20 µM.
Turning to `CCC(=O)C(CCN(C)C)(c1ccccc1)c1ccccc1` [NORMETHADONE], the IC50 was above 20 µM. Besides, the IC50 (read-out: pIC50 (converted)) is above 20 µM.
With `Oc1ccc2c3c1O[C@H]1[C@@H](O)C=C[C@H]4[C@@H](C2)NCC[C@@]341` [NORMORPHINE], the IC50 was above 20 µM. The IC50 (read-out: pIC50 (converted)) is above 20 µM.
Regarding `CCC(=O)C(CCN1CCCCC1)(c1ccccc1)c1ccccc1` [NORPIPANONE], the IC50 was above 20 µM. Besides, the IC50 (read-out: pIC50 (converted)) was above 20 µM.
For the compound `CO[C@@H]1[C@@H](OC(N)=O)[C@@H](O)[C@H](Oc2ccc3c(O)c(NC(=O)c4ccc(O)c(CC=C(C)C)c4)c(=O)oc3c2C)OC1(C)C` [NOVOBIOCIN], the IC50 is above 20 µM. For the same compound, for the setting “read-out: pIC50 (converted)”, the IC50 was above 20 µM.
As to `Cc1nnc(C(CCN2CC3CCC2CC3)(c2ccccc2)c2ccccc2)o1` [NUFENOXOLE], the IC50 was above 20 µM. For the same compound, the IC50 (read-out: pIC50 (converted)) was above 20 µM.
Regarding `CC(CCc1ccccc1)NC(C)C(O)c1ccc(O)cc1` (stereo not drawn) [NYLIDRIN], the IC50 was above 20 µM. Besides, where the note is “read-out: pIC50 (converted)”, the IC50 is above 20 µM.
The compound `CN(C)C[C@H]1CCCC[C@]1(O)c1cccc(O)c1` [O-DESMETHYL TRAMADOL] had an IC50 above 100 µM. Moreover, the IC50 (read-out: pIC50 (converted)) was above 100 µM.
In the case of `Cc1nc2c(C)cccn2c(=O)c1CCN1CCC(c2noc3cc(F)ccc23)CC1` [OCAPERIDONE], the IC50 was above 20 µM. Moreover, the IC50 (read-out: pIC50 (converted)) is above 20 µM.
Compound `CCCCCCCC(=O)O` [OCTANOIC ACID] yielded an IC50 above 20 µM. In addition, the IC50 (read-out: pIC50 (converted)) is above 20 µM.
In turn, `CCOc1cc(-c2nccc3cc(OC)c(OC)cc23)cc(OCC)c1OCC` [OCTAVERINE] returned an IC50 above 20 µM. For the same compound, where the note is “read-out: pIC50 (converted)”, the IC50 is above 20 µM.
Compound `CCCCCCCCN=c1ccn(CCCCCCCCCCn2ccc(=NCCCCCCCC)cc2)cc1` [OCTENIDINE] showed an IC50 above 20 µM. The IC50 (read-out: pIC50 (converted)) was above 20 µM.
`NCC(O)c1ccc(O)cc1` (stereo not drawn) [OCTOPAMINE] registered an IC50 above 20 µM. Moreover, the IC50 (read-out: pIC50 (converted)) is above 20 µM.
In the case of `CC1COc2c(N3CCN(C)CC3)c(F)cc3c(=O)c(C(=O)O)cn1c23` (stereo not drawn) [OFLOXACIN], the IC50 is above 20 µM. In addition, for the setting “read-out: pIC50 (converted)”, the IC50 is above 20 µM.
In the case of `Cc1cc2c(s1)Nc1ccccc1N=C2N1CCN(C)CC1` [OLANZAPINE], the IC50 is above 20 µM. Besides, the IC50 (read-out: pIC50 (converted)) is above 20 µM.
`O=C(c1cc(Cc2n[nH]c(=O)c3ccccc23)ccc1F)N1CCN(C(=O)C2CC2)CC1` [OLAPARIB] came in with an IC50 above 20 µM. Besides, the IC50 (read-out: pIC50 (converted)) is above 20 µM.
For the compound `NCCCC[C@H](NC(=O)[C@@H](Cc1cc(Br)c(O)c(Br)c1)NC(=O)N1CCC(N2Cc3ccccc3NC2=O)CC1)C(=O)N1CCN(c2ccncc2)CC1` [OLCEGEPANT], the IC50 is above 20 µM. For the same compound, the IC50 (read-out: pIC50 (converted)) was above 20 µM.
Turning to `CO[C@H]1C[C@H](O[C@H]2[C@H](C)[C@@H](O[C@@H]3O[C@H](C)C[C@H](N(C)C)[C@H]3O)[C@@H](C)C[C@@]3(CO3)C(=O)[C@H](C)[C@@H](O)[C@@H](C)[C@@H](C)OC(=O)[C@@H]2C)O[C@@H](C)[C@@H]1O` [OLEANDOMYCIN], the IC50 was above 20 µM. The IC50 (read-out: pIC50 (converted)) was above 20 µM.
`CC1(C)CC[C@]2(C(=O)O)CC[C@]3(C)C(=CC[C@@H]4[C@@]5(C)CC[C@H](O)C(C)(C)[C@@H]5CC[C@]43C)[C@@H]2C1` [OLEANOLIC_ACID] returned an IC50 above 20 µM. Besides, the IC50 (read-out: pIC50 (converted)) is above 20 µM.
Regarding `CCCCCCCC/C=C\CCCCCCCC(=O)O` [OLEIC ACID], the IC50 was above 20 µM. Moreover, the IC50 (read-out: pIC50 (converted)) was above 20 µM.
For `C/C=C1/[C@H](O[C@@H]2O[C@H](CO)[C@@H](O)[C@H](O)[C@H]2O)OC=C(C(=O)OC)[C@H]1CC(=O)OCCc1ccc(O)c(O)c1` [OLEUROPEIN], the IC50 is above 20 µM. Moreover, the IC50 (read-out: pIC50 (converted)) was above 20 µM.
As for `OC[C@H]1O[C@@H](S[C@@H]2O[C@H](CO)[C@H](O)[C@H](n3cc(-c4cccc(F)c4)nn3)[C@H]2O)[C@H](O)[C@@H](n2cc(-c3cccc(F)c3)nn2)[C@H]1O` [OLITIGALTIN], the IC50 is above 20 µM. Moreover, for the setting “read-out: pIC50 (converted)”, the IC50 is above 20 µM.
In turn, `CCCc1nc(C(C)(C)O)c(C(=O)O)n1Cc1ccc(-c2ccccc2-c2nnn[nH]2)cc1` [OLMESARTAN] displayed an IC50 above 20 µM. Further, the IC50 (read-out: pIC50 (converted)) is above 20 µM.
As for `CN(C)CC/C=C1/c2ccccc2COc2ccc(CC(=O)O)cc21` [OLOPATADINE], the IC50 was above 20 µM. Besides, the IC50 (read-out: pIC50 (converted)) is above 20 µM.
`CC(C)(C)[C@@H](CO)NC(=O)c1nn(-c2c[n+]([O-])ccn2)c2c1C[C@@H]1C[C@H]21` [OLORINAB]: the IC50 is above 20 µM. Also, where the note is “read-out: pIC50 (converted)”, the IC50 is above 20 µM.
Turning to `O=C(O)c1cc(/N=N/c2ccc(O)c(C(=O)O)c2)ccc1O` [OLSALAZINE], the IC50 was above 20 µM. Also, the IC50 (read-out: pIC50 (converted)) is above 20 µM.
`Cc1c(-c2cnccn2)ssc1=S` [OLTIPRAZ] returned an IC50 above 20 µM. In addition, the IC50 (read-out: pIC50 (converted)) was above 20 µM.
In turn, `COC(=O)C[C@](O)(CCCC(C)(C)O)C(=O)O[C@@H]1C(OC)=C[C@]23CCCN2CCc2cc4c(cc2[C@H]13)OCO4` [OMACETAXINE MEPESUCCINATE] returned an IC50 above 20 µM. Moreover, under “read-out: pIC50 (converted)”, the IC50 was above 20 µM.
As to `O=C(N[C@H]1CCS[C@H]2CCC[C@@H](C(=O)O)N2C1=O)[C@@H](S)Cc1ccccc1` [OMAPATRILAT], the IC50 was above 20 µM. Further, the IC50 (read-out: pIC50 (converted)) is above 20 µM.
`COC(=O)N1CCN(Cc2cccc(NC(=O)Nc3ccc(C)nc3)c2F)CC1` [OMECAMTIV MECARBIL] yielded an IC50 above 20 µM. Further, the IC50 (read-out: pIC50 (converted)) is above 20 µM.
`COc1ccc2[nH]c([S+]([O-])Cc3ncc(C)c(OC)c3C)nc2c1` (stereo not drawn) [OMEPRAZOLE] displayed an IC50 above 20 µM. For the setting “read-out: pIC50 (converted)”, the IC50 is above 20 µM.
On to `CC(C)c1cc(C(=O)N2Cc3ccc(CN4CCN(C)CC4)cc3C2)c(O)cc1O` [ONALESPIB], for which the IC50 was above 20 µM. Besides, the IC50 (read-out: pIC50 (converted)) is above 20 µM.
On to `Cc1nccn1CC1CCc2c(c3ccccc3n2C)C1=O` (stereo not drawn) [ONDANSETRON], for which the IC50 was above 20 µM. Also, where the note is “read-out: pIC50 (converted)”, the IC50 is above 20 µM.
For the compound `CN1CCN(c2ccc(OC(F)(F)F)c(Nc3ncc4c(n3)-c3c(c(C(N)=O)nn3CCO)CC4)c2)CC1` [ONVANSERTIB], the IC50 is above 20 µM. The IC50 (read-out: pIC50 (converted)) is above 20 µM.
Regarding `OCCN1CCN(CCCN2c3ccccc3C=Cc3ccccc32)CC1` [OPIPRAMOL], the IC50 was above 20 µM. Besides, the IC50 (read-out: pIC50 (converted)) was above 20 µM.
Regarding `Clc1ccc(C(Cn2ccnc2)OCc2c(Cl)cccc2Cl)cc1` (stereo not drawn) [ORCONAZOLE], the IC50 is above 20 µM. Also, under “read-out: pIC50 (converted)”, the IC50 was above 20 µM.
Take `COc1ccc2c(c1)CC[C@H](CN(C)CC(=O)O)[C@@H]2c1ccccc1` [ORG-25935]: the IC50 was above 20 µM. The IC50 (read-out: pIC50 (converted)) is above 20 µM.
As for `C=C1C(=O)[C@]23[C@H](O)[C@H]1CC[C@H]2[C@@]12CO[C@]3(O)[C@@H](O)[C@@H]1C(C)(C)CC[C@@H]2O` [ORIDONIN], the IC50 was above 20 µM. Besides, the IC50 (read-out: pIC50 (converted)) was above 20 µM.
